Measured values as given in patent publication US10300053B2, “Quinoline carboxamides for use in the treatment of leukemia” (Active Biotech AB, priority 2014, dated 2019).

Key:
AML = conditions: 0.2 mg/kg body weight twice weekly for 2 years following ABMT for AML in remission; cited from earlier work
[1] = system: B-cell leukemia (BCL1) cells; conditions: BALB/c mice inoculated with BCL1 cells; cited from earlier work
[2] = system: AL-7015-P2 leukemic cells; experiment: Patient Derived Xenograft (PDX) model AL-7015 of acute lymphocytic leukemia; assay type: in vivo, NOD/SCID mice
Method: Tasquinimod was tested in a Patient Derived Xenograft (PDX) model AL-7015 provided by Crown Bioscience In. (www.crownbio.com). Cells derived from a patient with B-cell ALL were used. On Day 0, NOD/SCID mice were inoculated i.v. with 70×10^6 AL-7015-P2 leukemic cells per mouse. From day 1 to termination mice were treated with tasquinimod ad lib. in the drinking water at 30 mg/kg. Mice were terminated, as soon as any sign of morbidity was observed. The median survival time for the vehicle group was 51 days, while it was 99 days for the treatment group (p<0.0001) (FIG. 2). In the treatment group, the tumor burden remained close to zero for at least 10 weeks, long after the vehicle group had reached 100% tumor burden (FIG. 3).

**Q.** Which “benefit over placebo regarding relapse” value (AML) does the source give for `CN(C(=O)c1c(O)c2ccccc2n(C)c1=O)c1ccccc1` [Roquinimex, 4-hydroxy-N, 1-dimethyl-2-oxo-N-phenyl-1,2-dihydroquinoline-3-carboxamide] here?
**A.** Its value is “no benefit”.

**Q.** What about the “benefit over placebo regarding survival” value (AML) of the same compound?
**A.** Its value is “no benefit”.

**Q.** What about the “impact on graft survival” value [1] of the same compound?
**A.** The value was “no impact”.

**Q.** And the “impact on graft versus leukemia (GVL) effects” value [1]?
**A.** Its value is “no impact”.

**Q.** Which median survival time ([2]; 30 mg/kg ad lib. in drinking water from day 1 to termination, vehicle group 51 days, p<0.0001) does the source give for `COc1cccc2c1c(O)c(C(=O)N(C)c1ccc(C(F)(F)F)cc1)c(=O)n2C` [tasquinimod, 4-hydroxy-5-methoxy-N,1-dimethyl-2-oxo-N-[4-(trifluoromethyl)phenyl]-1,2-dihydroquinoline-3-carboxamide] here?
**A.** The median survival time was 99 days.

**Q.** And the tumor burden ([2]; 30 mg/kg in drinking water, for at least 10 weeks, long after the vehicle group had reached 100% tumor burden)?
**A.** The tumor burden was “close to zero”.
